# Results from ChEMBL document CHEMBL1201862, “PubChem BioAssay data set” (2004).
# Calls of active or inactive are those of the source.
# Key:
# cells [1] = assay: cells
# [2] = inhibitors of intracellular T. cruzi replication, confirmation, NIH3T3 host cells, beta-gal luminescence (AID 2044); assay type: functional, cell-based;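 further: intracellular parasites grown in NIH/3T3 mouse fibroblasts as host cells; luminescent beta-galactosidase reporter signal from transgenic T. cruzi replicating inside host cells; inhibitors lower the luminescence signal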
# INS1 = assay: beta cell apoptosis inhibitors, cytokine rescue, dose response, luminescence, retest (AID 449756); assay type: functional, cell-based; conditions: Rattus norvegicus;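 further: cell death triggered by IL-1 beta plus TNF-alpha plus IFN-gamma mixture; protective hits raise ATP signal compared with cytokine alone wells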
# [3] = target: T1, Microphthalmia-associated transcription factor (Homo sapiens, UniProt O75030); assay: TRPM1 promoter luciferase signal decrease, dose response, MITF inhibitor project, cell-based, SK-MEL-5, cherry-picked, set 3 (AID 493073); assay type: functional
# T1 sequence (O75030 whole entry): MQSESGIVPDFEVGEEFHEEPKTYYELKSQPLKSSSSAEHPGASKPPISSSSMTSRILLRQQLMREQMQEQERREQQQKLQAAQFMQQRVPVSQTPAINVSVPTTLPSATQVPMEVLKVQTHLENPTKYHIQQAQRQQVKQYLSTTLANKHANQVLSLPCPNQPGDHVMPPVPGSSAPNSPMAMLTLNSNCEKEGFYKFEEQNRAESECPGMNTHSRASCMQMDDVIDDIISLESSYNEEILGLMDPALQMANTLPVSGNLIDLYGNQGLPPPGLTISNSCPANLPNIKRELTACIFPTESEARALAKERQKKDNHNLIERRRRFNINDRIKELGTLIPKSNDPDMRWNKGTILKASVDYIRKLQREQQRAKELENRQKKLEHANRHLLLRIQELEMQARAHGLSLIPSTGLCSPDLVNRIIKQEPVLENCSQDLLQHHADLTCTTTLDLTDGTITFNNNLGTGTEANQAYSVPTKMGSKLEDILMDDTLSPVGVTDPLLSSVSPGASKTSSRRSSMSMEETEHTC
# [4] = cytotoxicity toward NIH3T3 fibroblasts, dose response, counter-screen, cell-based, ATP luminescence, mouse fibroblasts (AID 2010); assay type: functional;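 further: cells exposed to compound for about 90 hours before reading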
# Leucine aminopeptidase = target: T2, Leucine aminopeptidase (Plasmodium falciparum 3D7, UniProt Q8IL11); assay: P. falciparum M17LAP inhibitors, primary screen, biochemical, fluorogenic H-Leu-NHMec substrate, 1536-well (AID 1619); assay type: functional
# T2 sequence (Q8IL11 whole entry): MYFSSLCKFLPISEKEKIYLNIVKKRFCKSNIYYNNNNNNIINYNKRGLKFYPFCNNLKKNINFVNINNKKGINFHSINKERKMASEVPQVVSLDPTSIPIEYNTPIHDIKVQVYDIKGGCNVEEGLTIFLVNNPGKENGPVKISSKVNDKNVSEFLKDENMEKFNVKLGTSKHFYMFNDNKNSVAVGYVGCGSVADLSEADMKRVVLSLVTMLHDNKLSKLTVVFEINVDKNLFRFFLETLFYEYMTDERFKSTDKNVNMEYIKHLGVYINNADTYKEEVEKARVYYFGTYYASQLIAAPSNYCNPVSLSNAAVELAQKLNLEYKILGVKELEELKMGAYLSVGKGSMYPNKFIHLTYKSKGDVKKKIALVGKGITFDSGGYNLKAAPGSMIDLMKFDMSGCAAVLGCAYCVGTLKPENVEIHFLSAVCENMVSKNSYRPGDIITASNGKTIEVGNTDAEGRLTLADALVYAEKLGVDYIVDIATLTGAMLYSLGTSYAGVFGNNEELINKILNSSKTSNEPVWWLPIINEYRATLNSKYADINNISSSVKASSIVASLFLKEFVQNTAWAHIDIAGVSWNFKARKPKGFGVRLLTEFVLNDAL
# Cytochrome P450 1A2 = target: T3, Cytochrome P450 1A2 (Homo sapiens, UniProt P05177);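 further: PubChem cytochrome P450 panel assay, CYP1A2 panel member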
# T3 sequence (P05177 whole entry): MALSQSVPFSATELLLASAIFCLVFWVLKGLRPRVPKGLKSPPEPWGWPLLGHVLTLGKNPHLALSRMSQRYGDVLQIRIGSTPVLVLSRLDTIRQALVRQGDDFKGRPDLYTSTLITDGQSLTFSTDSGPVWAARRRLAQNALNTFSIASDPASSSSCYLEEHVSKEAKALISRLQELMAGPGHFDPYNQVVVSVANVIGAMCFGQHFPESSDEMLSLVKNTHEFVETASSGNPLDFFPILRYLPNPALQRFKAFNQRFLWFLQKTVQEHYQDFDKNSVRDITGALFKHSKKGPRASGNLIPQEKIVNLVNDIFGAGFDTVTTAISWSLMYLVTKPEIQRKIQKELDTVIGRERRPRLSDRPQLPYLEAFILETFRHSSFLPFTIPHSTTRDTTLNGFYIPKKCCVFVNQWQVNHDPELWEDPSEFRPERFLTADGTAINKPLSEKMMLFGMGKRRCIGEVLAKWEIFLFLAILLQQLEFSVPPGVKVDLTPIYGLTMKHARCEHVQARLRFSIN
# Estrogen receptor = target: T4, Estrogen receptor (Homo sapiens, UniProt P03372);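 further: potency for inhibiting coactivator peptide recruitment to the receptor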
# T4 sequence (P03372 whole entry): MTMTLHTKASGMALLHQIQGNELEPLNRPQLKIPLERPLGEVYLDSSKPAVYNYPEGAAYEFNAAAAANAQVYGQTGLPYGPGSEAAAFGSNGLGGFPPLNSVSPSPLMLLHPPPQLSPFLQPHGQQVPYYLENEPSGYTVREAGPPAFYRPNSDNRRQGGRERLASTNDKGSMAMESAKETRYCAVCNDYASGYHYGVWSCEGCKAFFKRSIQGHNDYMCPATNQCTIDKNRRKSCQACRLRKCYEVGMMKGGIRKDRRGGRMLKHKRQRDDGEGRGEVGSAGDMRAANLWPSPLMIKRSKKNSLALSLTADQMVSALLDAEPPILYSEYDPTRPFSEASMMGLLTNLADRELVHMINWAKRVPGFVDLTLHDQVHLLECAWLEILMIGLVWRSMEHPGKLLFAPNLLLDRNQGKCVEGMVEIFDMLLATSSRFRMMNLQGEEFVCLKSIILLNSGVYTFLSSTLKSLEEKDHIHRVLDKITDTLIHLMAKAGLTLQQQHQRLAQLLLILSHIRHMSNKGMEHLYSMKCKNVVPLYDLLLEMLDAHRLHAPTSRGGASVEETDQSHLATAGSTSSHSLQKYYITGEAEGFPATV
# cells [5] = assay type: functional, cell-based
# cells [6] = assay type: functional, cell-based; remark: listed apart in the source
# Nonstructural protein 1 = Nonstructural protein 1 (Influenza A virus, UniProt Q194T2); assay type: functional, Influenza A virus (A/California/07/2009(H1N1))
# [7] = target: T5, Histone-lysine N-methyltransferase NSD2 (Homo sapiens, UniProt O96028); assay type: biochemical
# T5 sequence (O96028 whole entry): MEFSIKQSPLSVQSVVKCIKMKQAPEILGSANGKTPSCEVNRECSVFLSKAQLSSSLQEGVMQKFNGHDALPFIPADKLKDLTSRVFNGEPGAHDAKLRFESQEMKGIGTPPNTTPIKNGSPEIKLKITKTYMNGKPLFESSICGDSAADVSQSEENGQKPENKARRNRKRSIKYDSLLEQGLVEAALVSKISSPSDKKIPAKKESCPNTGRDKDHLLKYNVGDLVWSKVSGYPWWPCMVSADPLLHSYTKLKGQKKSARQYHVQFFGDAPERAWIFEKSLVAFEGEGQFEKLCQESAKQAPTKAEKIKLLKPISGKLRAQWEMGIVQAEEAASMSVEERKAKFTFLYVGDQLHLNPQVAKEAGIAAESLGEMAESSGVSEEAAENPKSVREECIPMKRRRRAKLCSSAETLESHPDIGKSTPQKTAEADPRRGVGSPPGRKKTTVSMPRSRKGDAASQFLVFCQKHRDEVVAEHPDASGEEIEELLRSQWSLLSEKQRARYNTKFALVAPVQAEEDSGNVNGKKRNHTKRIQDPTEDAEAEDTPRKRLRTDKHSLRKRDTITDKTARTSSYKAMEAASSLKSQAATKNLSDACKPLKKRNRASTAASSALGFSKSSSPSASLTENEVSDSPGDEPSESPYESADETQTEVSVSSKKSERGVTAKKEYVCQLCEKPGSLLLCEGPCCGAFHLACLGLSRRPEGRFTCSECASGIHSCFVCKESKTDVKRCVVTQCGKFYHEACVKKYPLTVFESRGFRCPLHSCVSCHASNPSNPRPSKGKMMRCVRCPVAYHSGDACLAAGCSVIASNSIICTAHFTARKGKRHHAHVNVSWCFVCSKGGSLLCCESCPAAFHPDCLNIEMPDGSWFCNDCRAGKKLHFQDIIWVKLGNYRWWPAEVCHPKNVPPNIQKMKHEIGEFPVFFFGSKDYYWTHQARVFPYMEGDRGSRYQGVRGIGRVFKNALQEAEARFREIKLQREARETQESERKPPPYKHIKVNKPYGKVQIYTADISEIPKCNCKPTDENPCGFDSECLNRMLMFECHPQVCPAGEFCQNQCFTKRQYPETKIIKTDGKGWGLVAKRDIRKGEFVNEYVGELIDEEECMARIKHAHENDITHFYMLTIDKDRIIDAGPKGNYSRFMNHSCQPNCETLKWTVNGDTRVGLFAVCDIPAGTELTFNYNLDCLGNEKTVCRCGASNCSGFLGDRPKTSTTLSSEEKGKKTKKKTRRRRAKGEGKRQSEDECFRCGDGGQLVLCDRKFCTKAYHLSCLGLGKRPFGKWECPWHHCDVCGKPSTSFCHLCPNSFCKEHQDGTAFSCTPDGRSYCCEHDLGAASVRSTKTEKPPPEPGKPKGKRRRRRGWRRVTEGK
# [8] = target: T6, Mannose-6-phosphate isomerase (Homo sapiens, UniProt P34949); assay: human PMI inhibitors, high substrate, primary screen, biochemical, fluorescence intensity, high mannose 6-phosphate (AID 1220)
# T6 sequence (P34949 whole entry): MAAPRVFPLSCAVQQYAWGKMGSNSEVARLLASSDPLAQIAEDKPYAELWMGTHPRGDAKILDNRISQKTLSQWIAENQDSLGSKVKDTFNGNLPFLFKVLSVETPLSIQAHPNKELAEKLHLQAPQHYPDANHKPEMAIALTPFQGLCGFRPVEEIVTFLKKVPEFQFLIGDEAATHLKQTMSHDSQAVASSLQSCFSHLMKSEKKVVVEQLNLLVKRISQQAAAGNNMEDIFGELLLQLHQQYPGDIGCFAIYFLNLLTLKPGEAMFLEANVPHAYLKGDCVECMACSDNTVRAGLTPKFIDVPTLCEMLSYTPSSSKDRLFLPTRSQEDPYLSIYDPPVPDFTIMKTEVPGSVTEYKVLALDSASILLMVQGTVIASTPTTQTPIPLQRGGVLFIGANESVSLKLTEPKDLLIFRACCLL
# Paired box protein Pax-8 = Paired box protein Pax-8 (Homo sapiens, UniProt Q06710); assay: inhibitors of PAX8-driven TPO luciferase reporter, dose response, RMG-I cells, cherry-pick (AID 687027); assay type: functional, cell-based;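 further: luciferase reporter driven by Pax8 target thyroperoxidase promoter measured by SteadyGlo luminescence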
# [9] = IGROV1 ovarian cancer cell cytotoxicity, dose response, PAX8 inhibitor project, plate reader, dry powder samples (AID 743043); assay type: functional, cell-based; conditions: IGROV-1
# [10] = cytotoxicity in OVCAR8 ovarian cancer cells, dose response, PAX8 project, cell-based, plate reader, dry powder samples (AID 743197); assay type: functional; conditions: OVCAR-8
# [11] = NIH:OVCAR-3 ovarian cancer cell cytotoxicity, dose response, PAX8 inhibitor project, plate reader, dry powder samples (AID 743044); assay type: functional, cell-based
# Sequence of Paired box protein Pax-8 (Q06710 whole entry): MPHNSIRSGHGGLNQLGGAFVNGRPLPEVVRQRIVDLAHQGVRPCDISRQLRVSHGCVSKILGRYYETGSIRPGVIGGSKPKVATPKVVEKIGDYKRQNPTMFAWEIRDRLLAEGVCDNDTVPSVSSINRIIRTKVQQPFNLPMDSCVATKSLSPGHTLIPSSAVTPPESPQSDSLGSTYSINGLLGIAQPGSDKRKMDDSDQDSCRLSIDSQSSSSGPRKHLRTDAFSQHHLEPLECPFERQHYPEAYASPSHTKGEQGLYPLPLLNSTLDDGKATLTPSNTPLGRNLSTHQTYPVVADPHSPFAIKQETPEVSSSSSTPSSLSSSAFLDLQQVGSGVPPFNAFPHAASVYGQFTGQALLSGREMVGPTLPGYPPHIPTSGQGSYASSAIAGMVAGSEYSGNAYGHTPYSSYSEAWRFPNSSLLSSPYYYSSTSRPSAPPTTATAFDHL
# Sequence of Nonstructural protein 1 (Q194T2 whole entry): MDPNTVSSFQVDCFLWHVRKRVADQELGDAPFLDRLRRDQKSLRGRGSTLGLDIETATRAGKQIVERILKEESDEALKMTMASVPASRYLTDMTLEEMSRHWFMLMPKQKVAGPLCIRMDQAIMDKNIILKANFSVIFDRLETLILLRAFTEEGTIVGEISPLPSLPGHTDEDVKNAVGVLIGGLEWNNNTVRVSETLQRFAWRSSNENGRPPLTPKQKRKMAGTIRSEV
structure (smiles),measurement,setting,value
Cc1ccc(-c2c[n+](Cc3ccc(Cl)cc3)c3n2CCC3)cc1,EC50,cells [1],0.027 µM (active)
same,EC50,[2],< 0.1 µM (active)
same,AC50,INS1,5.16 µM (active)
same,AC50,[3],14.2 µM (active)
same,EC50,[4],> 30 µM (not active)
O=C(O)c1nn(Cc2ccc(Cl)cc2Cl)c2ccccc12 [LONIDAMINE],IC50,Leucine aminopeptidase,7.37 µM (active)
same,AC50,Cytochrome P450 1A2,39.8 µM (inconclusive)
N#Cc1c(O)nc(S)nc1-c1ccccc1,IC50,Leucine aminopeptidase,15.7 µM (active)
O=C(Nc1ccc2nn(-c3ccccc3)nc2c1)c1ccc2c(c1)OCO2,IC50,Estrogen receptor,6.3 µM (active)
ON=CNc1cccc2nonc12,EC50,cells [5],98.8 µM (active)
same,EC50,cells [6],> 350 µM (not active)
COc1ccc(-c2nn(-c3ccccc3)cc2C(=O)N/N=C/c2ccc([N+](=O)[O-])o2)cc1,EC50,cells [1],0.038 µM (active)
same,EC50,[2],< 0.1 µM (active)
same,EC50,[4],> 60 µM (not active)
CC1=C(C)CC(C(=O)NNC(=O)c2csc3c2CCC(C(C)(C)C)C3)C(C(=O)O)C1 (configuration not stated),IC50,Leucine aminopeptidase,8.98 µM (active)
CCOc1ccc(NC2=C(OC)C(=O)c3ccccc3C2=O)cc1,IC50,Nonstructural protein 1,7.02 µM (active)
same,AC50,[7],6.18 µM (active)
CC1CCC2(CC1)NC(=O)N(CC(=O)Nc1ccc(N3CCOCC3)cc1)C2=O (configuration not stated),IC50,Leucine aminopeptidase,58.6 µM (active)
O=c1cc(O)c2sc(Nc3cccc(C(F)(F)F)c3)nc2[nH]1,IC50,[8],> 50 µM (not active)
C[C@@H]1CCCCO[C@@H](CN(C)Cc2ccc3c(c2)OCO3)[C@@H](C)CN([C@@H](C)CO)C(=O)c2cc(NC(=O)Nc3ccc(C(F)(F)F)cc3)ccc2O1,AC50,Paired box protein Pax-8,8.56 µM (active)
same,AC50,[9],37.4 µM (active)
same,AC50,[10],44 µM (active)
same,AC50,[11],40.3 µM (active)
C[C@@H]1CCCCO[C@@H](CN(C)C(=O)Nc2ccc(F)cc2)[C@H](C)CN([C@H](C)CO)C(=O)c2cc(NS(=O)(=O)c3ccc(Cl)cc3)ccc2O1,AC50,Paired box protein Pax-8,6.23 µM (active)
same,AC50,[9],53 µM (active)
same,AC50,[10],> 70 µM (inactive)
Cc1ccc(NC2SC(=O)N(Cc3cccc(C(=O)O)c3)C2=O)cc1 (configuration not stated),IC50,Leucine aminopeptidase,6.86 µM (active)
Cn1cc(CN2CCCC(CNC(=O)c3ccc4c(c3)OCO4)C2)c2ccccc21 (configuration not stated),EC50,cells [1],0.064 µM (active)
same,EC50,[2],< 0.1 µM (active)
same,EC50,[4],> 60 µM (not active)
O=C1C(=O)C(Cl)=C(Cl)C(Cl)=C1Cl,AC50,[7],11.2 µM (active)
CCOCC(=O)Nc1cccc(C(=O)OCC)c1,IC50,Estrogen receptor,> 50 µM (not active)
